Test results: paper PMC6429436 (Bioconjugate Chemistry, 2019)
Where “and” joins values, the source holds several entries; their conditions need not be identical. Equal values may be shown once.

Assays:
cholera toxin B-subunit = cholera toxin B-subunit (Vibrio cholerae serotype O1, UniProt P01556); test: biochemical; type: binding
[1] = tested on: CT-induced swelling of intestinal organoids; test: cells; type: cell-based, human
CTB = details: LeY-CTB binding, secondary binding site; cited from earlier work

Chain of cholera toxin B-subunit (P01556 22-124 limits assumed): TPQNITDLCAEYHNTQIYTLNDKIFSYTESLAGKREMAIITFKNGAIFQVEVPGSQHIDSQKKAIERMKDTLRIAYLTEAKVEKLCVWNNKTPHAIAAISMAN

| SMILES | rel. pot. (cholera toxin B-subunit) | rel. pot. per sugar (cholera toxin B-subunit) | IC50 (cholera toxin B-subunit; IC50 (μg/mL)) [mM] | rel. pot. [1] | rel. pot. per sugar [1] | IC50 ([1]; Homo sapiens) | Kd (CTB) [mM] |
| --- | --- | --- | --- | --- | --- | --- | --- |
| O=C[C@H](O)[C@@H](O)[C@@H](O)[C@H](O)CO [galactose] | 1 | 1 | 111 | 1 | 1 | 100 mM and 18000 µg/mL |  |
| CC(=O)N[C@@H]1[C@@H](O[C@@H]2O[C@@H](C)[C@@H](O)[C@@H](O)[C@@H]2O)[C@H](O[C@@H]2O[C@H](CO)[C@H](O)[C@H](O)[C@H]2O[C@@H]2O[C@@H](C)[C@@H](O)[C@@H](O)[C@@H]2O)[C@@H](CO)O[C@H]1O [LeY] |  |  |  |  |  |  | 1.4 |
